According to patent EP1482955B1, “PROPHYLACTIC AND THERAPEUTIC TREATMENT OF […] OTHER DISEASES WITH IMMU[…]” (CORIXA CORPORATION, priority 2002, dated 2003):

Assays:
[1] = system: Influenza A/HK/68; experiment: Protection against lethal influenza challenge by prophylactic intranasal administration; type: in vivo; settings: BALB/c mice; for protection when compared with the vehicle control: 20 µg intranasally 48 hours prior to challenge (5 LD50), judged by survival, clinical symptoms and prevention of weight loss for 21 days; for survival rate: 20 µg intranasally 48 hours prior to lethal intranasal challenge (5 LD50), followed 21 days
Experimental: This example provides experiments evaluating protection against a lethal challenge with influenza in cyclic AGP-treated mice. BALB/c mice (10 mice per group) were treated intranasally with 20 µg of the compounds of examples 1, 2 and 3, or with MPL, 48 hours prior to an lethal intranasal challenge of Influenza A/HK/68 (5 LD50). Protection was judged by survival, observations of clinical symptoms (ruffled fur, hunched posture and labored breathing), and prevention of weight loss for 21 days following the challenge.

[2] = system: L. monocytogenes 10403 serotype; experiment: Murine Listeria monocytogenes challenge model (induction of non-specific resistance); type: in vivo; settings: mice, 1 µg intravenously in 0.2% TEOA two days before intravenous challenge with ~10^5 L. monocytogenes; spleen CFUs two days after challenge
Experimental: This example provides experiments evaluating the induction of non-specific resistance in the murine Listeria monocytogenes challenge model performed using the compounds prepared in examples 1, 2 and 3. Mice (5 per group) were treated intravenously with the 1 µg of a cyclic AGP or MPL solublized in 0.2% triethanolamine (TEOA). Two days later the mice were challenged intravenously with a ~10^5 L. monocytogenes 10403 serotype (stock culture provided by Jory Baldridge, Washington State University, Pullman, WA.). Two days after the challenge the mice were sacrificed and the number of colony forming units (CFUs) in the spleens of individual mice were determined by plating 10-fold serial dilutions of splenic homogenates on tryptic soy agar plates. The degree of protection afforded by a given AGP or MPL was calculated by subtracting the average number of bacteria per spleen (log10 value) in the group of mice treated with a given compound, from the average number of bacteria per spleen (log10 value) in a control group that was "sham" treated with vehicle (0.2% TEOA) prior to challenge with L. monocytogenes.

| Molecule | protection when compared with the vehicle control [1] | survival rate [1] | protection (average number of bacteria per spleen, log10 value, vehicle control group minus treated group) [2] |
| --- | --- | --- | --- |
| CCCCCCCCCCCC(=O)O[C@H](CCCCCCCCCCC)CC(=O)N[C@H]1[C@H](OC[C@@H]2CCCN2C(=O)C[C@@H](CCCCCCCCCCC)OC(=O)CCCCCCCCCCC)O[C@H](CO)[C@@H](OP(=O)(O)O)[C@@H]1OC(=O)C[C@@H](CCCCCCCCCCC)OC(=O)CCCCCCCCCCC.CCN(CC)CC [Example 2, N-[(R)-3-Dodecanoyloxytetradecanoyl]-(S)-2-pyrrolidinylmethyl 2-Deoxy-4-O-phosphono-2-[(R)-3-dodecanoyloxy-tetradecanoylamino]-3-O-[(R)-3-dodecanoyloxytetradecanoyl]-β-D-glucopyranoside Triethylammonium Salt] | enhanced protection | 40% | 0.7 log 10 units |
| CCCCCCCCCCC[C@H](CC(=O)N[C@H]1[C@H](OC[C@@H]2CCCN2C(=O)C[C@@H](CCCCCCCCCCC)OC(=O)CCCCCCCCC)O[C@H](CO)[C@@H](OP(=O)(O)O)[C@@H]1OC(=O)C[C@@H](CCCCCCCCCCC)OC(=O)CCCCCCCCC)OC(=O)CCCCCCCCC.CCN(CC)CC [Example 3, N-[(R)-3-Decanoyloxytetradecanoyl]-(S)-2-pyrrolidinylmethyl 2-Deoxy-4-O-phosphono-2-[(R)-3-Decanoyloxytetradecanoylamino]-3-O-[(R)-3-Decanoyloxytetradecanoyl]-β-D-glucopyranoside Triethylammonium Salt] | enhanced protection | 60% | ~ 0.9 log 10 units |
| N-[(R)-3-Tetradecanoyloxytetradecanoyl]-(S)-2-pyrrolidinylmethyl 2-Deoxy-4-O-phosphono-2-[(R)-3-tetradecanoyloxytetradecanoylamino]-3-O-[(R)-3-tetradecanoyloxytetradecanoyl]-β-D-glucopyranoside Triethylammonium Salt [Example 1] | – | No mice | 0.2 log 10 units |
